Marks after values point to notes of the source that are not given here.
Legend:
[1] = DPPH radical scavenging assay; details: Trolox equivalent antioxidant capacity, mean ± SD, n ≥ 3
Experimental: The experiment was carried out as previously described. […] Thereafter, the absorbance was measured using a microplate reader (EL800, Bio-Tek Instruments, Winooski, VT, USA) at 570 nm.

[2] = Hypochlorous acid (HOCl) scavenging assay
Experimental: The HOCl scavenging assay was adapted from a previous study using 1,8-diaminonaphthalene as a fluorescence probe for hypochlorite. […] Next, the fluorescence intensity (λex = 360 ± 20 nm, λem = 460 ± 20 nm) was immediately measured using a microplate fluorescence reader (FLx800; Bio-Tek, Winooski, VT, USA). Trolox (final concentration 25–100 µg/mL) was used as a reference antioxidant.

[3] = Partition coefficient (K upper/lower) in biphasic CCC solvent systems; format: physicochemical
Experimental: The solvent system was screened via HPLC and evaluated according to the partition coefficient (K value) of the target compounds on the principle introduced by Ito [32]. Briefly, four solvent systems comprising EtOAc, n-BuOH, […] solution to 29 mM, and then the corresponding K values of the target compounds under acidic (Kacid) or basic (Kbase) conditions were determined, as previously described: each acidified or basified solvent system was partitioned to upper layer and lower layer. Thereafter, the extract (about 1–2 mg) was prepared in a 1.5 mL tube and dissolved by adding equal volumes (each 500 µL) of the upper layer and lower layers, which were mixed by a vortex mixer and centrifuged for about 20 s using a C1301 Mini Centrifuge (Labnet International, South Korea). Next, the upper and lower phase sample solutions were respectively pipetted (each 200 µL) into a new 1.5 mL-tube and evaporated by nitrogen gas. Each sample residue was redissolved using 200 µL of MeOH and subjected to HPLC analysis with an injection volume of 20 µL. The K value was calculated as K = Aupper/Alower, where Aupper and Alower are the HPLC peak areas of the target component in the upper and lower phases, respectively.

[4] = biological target: T1, rat lens AR homogenate (aldose reductase) (Rattus norvegicus, UniProt P07943); assay: AR inhibition assay; format: biochemical, Sprague–Dawley rats
T1 construct: the lenses were removed from the eyes, ground in a mortar; from tissue; host or cells: lens of Sprague–Dawley rats
Experimental: The eyes of 10-week Sprague–Dawley rats (250–280 g) were removed and frozen at −70 °C before use. Thereafter, the lenses were removed from the eyes, ground in a mortar (precooled at −70 °C), and extracted using 0.1 M PBS of pH 6.2 (around 0.5 mL of buffer per two frozen rat lenses).
The AR inhibitory activities of the extract and the separated compounds were determined as described previously. […] Next, the reaction was initiated by adding 20 µL of the substrate (DL-glyceraldehyde dimmer, 25 mM in 0.1 M PBS of pH 7.0), and the values were further measured for 6 min at 340 nm (OD340) using an Epoch microplate spectrophotometer (BioTek Instruments, Winooski, VT, USA). […] The DMSO used for sample preparation was less than 0.4% (v/v) in the reaction system.

[5] = Oxygen radical absorbance capacity (ORAC) assay; details: Trolox equivalent antioxidant capacity, mean ± SD, n ≥ 3
Experimental: The oxygen radical absorbance capacity (ORAC) assay was performed as previously described. Briefly, 0. […] Next, 60 µL of AAPH (40 mM) was added to generate peroxyl radicals to initiate the reaction.

[6] = ABTS radical scavenging assay; details: Trolox equivalent antioxidant capacity, mean ± SD, n ≥ 3
Experimental: The experiment was conducted as previously described. In brief, 3.5 mM of potassium persulfate aqueous solution was used to prepare 0.2 mM of ABTS diammonium salt. The solution was diluted 10-fold using distilled water and allowed to produce ABTS radicals (ABTS^+) by keeping the solution in the dark for 14 h at room temperature. […] Equation (1) was used to calculate the ABTS^+ scavenging activity (%), where Acontrol is the absorbance of ABTS^+ solution free of samples, Asample is the absorbance of ABTS^+ solution incubated with a sample, Ablank1 is the absorbance of the test sample free of ABTS^+ solution, and Ablank2 is the absorbance of the diluted potassium persulfate solution.

O=C(/C=C/c1ccc(O)c(O)c1)O[C@@H]1[C@H](O)C[C@@](O)(C(=O)O)C[C@H]1OC(=O)/C=C/c1ccc(O)c(O)c1 [4,5-diCQA (6), 4,5-di-O-caffeoylquinic acid]
TE, DPPH [1]: 1.23 ± 0.07 ^a µmol Trolox Equivalents Per µmol Compound | HOCl Scavenging Activity Inhibition (%) ([2]; 3.125 µM): 48.80 ± 5.62% | HOCl Scavenging Activity Inhibition (%) ([2]; 6.25 µM): 51.23 ± 2.14% | HOCl Scavenging Activity Inhibition (%) ([2]; 12.5 µM): 65.80 ± 4.06% | IC50 ([2]; linear regression): 4610 nM | K(upper/lower) Value ([3]; EtOAc/H2O, 1:1, 30 mM ammonia): 0.01 | K(upper/lower) Value ([3]; EtOAc/H2O, 1:1, 208 mM formic acid): 12.24 | K(upper/lower) Value ([3]; EtOAc/n-BuOH/H2O, 2:3:5, 30 mM ammonia): 0.13 | K(upper/lower) Value ([3]; EtOAc/n-BuOH/H2O, 2:3:5, 208 mM formic acid): 45.95 | K(upper/lower) Value ([3]; EtOAc/n-BuOH/H2O, 3:2:5, 30 mM ammonia): 0.05 | K(upper/lower) Value ([3]; EtOAc/n-BuOH/H2O, 3:2:5, 208 mM formic acid): 41.13 | K(upper/lower) Value ([3]; EtOAc/n-BuOH/H2O, 4:1:5, 30 mM ammonia): 0.01 | K(upper/lower) Value ([3]; EtOAc/n-BuOH/H2O, 4:1:5, 208 mM formic acid): 22.17 | inhibition at 0.098 µM ([4]; 0.098 µM, read-out: AR inhibitory Activity Inhibition (%)): 23.7 ± 2.7% | inhibition at 0.195 µM ([4]; 0.195 µM, read-out: AR inhibitory Activity Inhibition (%)): 44.4 ± 4.45% | inhibition at 0.391 µM ([4]; 0.391 µM, read-out: AR inhibitory Activity Inhibition (%)): 65.9 ± 2.21% | IC50 ([4]; rat lens AR, read-out: AR inhibitory Activity IC50): 230 nM | TE, ORAC [5]: 3.70 ± 0.34 ^a µmol Trolox Equivalents Per µmol Compound | TE, ABTS [6]: 1.22 ± 0.03 ^b µmol Trolox Equivalents Per µmol Compound

— article PMC8152971, “Valeriana rigida Ruiz & Pav. Root Extract: A New Source of Caffeoylquinic Acids with Antioxidant and Aldose Reductase Inhibitory Activities” (Foods, 2021)
